Values joined by “and” are separate entries in the source; they are usually repeats but may differ in a detail not shown here. Identical values can stand only once. Toxic doses and inconclusive results are not listed.
System: P388 leukemia ip, CD2F1 mice, survival T/C
Assay: NCI In Vivo Anticancer Drug Screen. Data for tumor model P388 Leukemia (intraperitoneal) in CD2F1 (CDF1) mice
Settings: endpoint: median survival time, higher = longer survival
Outline: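 Mice carrying the transplanted tumor received test compound or vehicle. Survival was recorded in each group, and the value is the treated-group measurement divided by that of the vehicle-treated control group.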

[1] = dose: 100.0 mg/kg/injection, schedule: Q04DX003 (ip), vehicle: saline
[2] = dose: 200.0 mg/kg/injection, schedule: Q04DX003 (ip), vehicle: saline
[3] = dose: 50.0 mg/kg/injection, schedule: Q01DX009 (ip), vehicle: saline
[4] = dose: 100.0 mg/kg/injection, schedule: Q01DX009 (ip), vehicle: saline
[5] = dose: 200.0 mg/kg/injection, schedule: Q01DX009 (ip), vehicle: saline
[6] = dose: 25.0 mg/kg/injection, schedule: Q01DX009 (ip), vehicle: saline
[7] = dose: 60.0 mg/kg/injection, schedule: Q01DX005 (ip), vehicle: Klucel (hydroxypropylcellulose) (HPC)
[8] = dose: 100.0 mg/kg/injection, schedule: Q04DX002 (ip), vehicle: saline with Tween-80
[9] = dose: 200.0 mg/kg/injection, schedule: Q04DX002 (ip), vehicle: saline with Tween-80
[10] = dose: 400.0 mg/kg/injection, schedule: Q04DX002 (ip), vehicle: saline with Tween-80
[11] = dose: 50.0 mg/kg/injection, schedule: Q01DX005 (ip), vehicle: Klucel (hydroxypropylcellulose) (HPC)
[12] = dose: 100.0 mg/kg/injection, schedule: Q01DX005 (ip), vehicle: Klucel (hydroxypropylcellulose) (HPC)

For `CCCC(O)C(C)[N+](=O)[O-]` (stereo not given), the T/C [1] was 100 % of control and the T/C [2] was 95 % of control.

`O=S(=O)(O)OCNc1cc(F)cc(F)c1` was tested, and the T/C [3] was 96 % of control, the T/C [4] was 99 % of control and the T/C [5] was 101 % of control.

In the case of `CC(C)(C)c1ccc(O)c(CNCc2ccccc2)c1`, the T/C (dose: 25.0 mg/kg/injection, schedule: Q01DX005 (ip), vehicle: Klucel + Tween-80) is reported as 99 % of control, the T/C (dose: 50.0 mg/kg/injection, schedule: Q01DX005 (ip), vehicle: Klucel + Tween-80) is reported as 97 % of control and the T/C (dose: 100.0 mg/kg/injection, schedule: Q01DX005 (ip), vehicle: Klucel + Tween-80) is reported as 93 % of control. For the same compound, the T/C (dose: 200.0 mg/kg/injection, schedule: Q01DX005 (ip), vehicle: Klucel + Tween-80) was 100 % of control.

`Cc1ccc(C(=O)C=C(C(F)(F)F)C(F)(F)F)cc1` was tested, and the T/C (dose: 6.25 mg/kg/injection, schedule: Q01DX009 (ip), vehicle: saline) was 100 % of control, the T/C (dose: 6.25 mg/kg/injection, schedule: Q04DX003 (ip), vehicle: saline) was 95 % of control and the T/C (dose: 12.5 mg/kg/injection, schedule: Q01DX009 (ip), vehicle: saline) was 100 % of control. For the same compound, the T/C (dose: 12.5 mg/kg/injection, schedule: Q04DX003 (ip), vehicle: saline) was 95 % of control, the T/C [6] was 109 % of control and the T/C (dose: 25.0 mg/kg/injection, schedule: Q04DX003 (ip), vehicle: saline) was 104 % of control.

For `COc1cc(C2CC(C)(N3CCCC3)Oc3cc4c(cc32)OCO4)cc(OC)c1OC` (stereo not given), the T/C [7] was 106 % of control and 109 % of control.

For `O=C1NN2CCCN=C2c2cccnc21`, the T/C [8] was 101 % of control, the T/C [9] was 98 % of control and the T/C [10] was 101 % of control.

`CCOC(=O)C1C(c2ccc(OC)cc2OC)c2cc3c(cc2OC1(C)N1CCCC1)OCO3` (stereo not given) was tested, and the T/C [7] was 90 % of control, the T/C (dose: 120.0 mg/kg/injection, schedule: Q01DX005 (ip), vehicle: Klucel (hydroxypropylcellulose) (HPC)) was 97 % of control and the T/C (dose: 240.0 mg/kg/injection, schedule: Q01DX005 (ip), vehicle: Klucel (hydroxypropylcellulose) (HPC)) was 94 % of control.

`CC1CC(C)(O)CC(C(O)CC2CC(=O)NC(=O)C2)C1=O` (stereo not given) was tested, and the T/C (dose: 77.8 micrograms/kg/injection, schedule: Q01DX009 (ip), vehicle: saline) was 123 % of control, the T/C (dose: 216.0 micrograms/kg/injection, schedule: Q01DX009 (ip), vehicle: saline) was 152 % of control and 162 % of control and the T/C (dose: 360.0 micrograms/kg/injection, schedule: Q01DX009 (ip), vehicle: saline) was 165 % of control. For the same compound, the T/C (dose: 467.0 micrograms/kg/injection, schedule: Q04DX003 (ip), vehicle: saline) was 120 % of control, the T/C (dose: 778.0 micrograms/kg/injection, schedule: Q04DX003 (ip), vehicle: saline) was 120 % of control and the T/C (dose: 1300.0 micrograms/kg/injection, schedule: Q04DX003 (ip), vehicle: saline) was 120 % of control. The T/C (dose: 2160.0 micrograms/kg/injection, schedule: Q04DX003 (ip), vehicle: saline) was 124 % of control and the T/C (dose: 3600.0 micrograms/kg/injection, schedule: Q04DX003 (ip), vehicle: saline) was 118 % of control.

With `N=C(N)SCc1ccc(CSC(=N)N)s1` the T/C (dose: 7.5 mg/kg/injection, schedule: Q01DX009 (ip), vehicle: saline) was 107 % of control, the T/C (dose: 15.0 mg/kg/injection, schedule: Q01DX009 (ip), vehicle: saline) was 101 % of control and the T/C (dose: 30.0 mg/kg/injection, schedule: Q01DX009 (ip), vehicle: saline) was 117 % of control.

`C=C1CC2(OC1=O)C1CC3CC(C1)CC2C3` (stereo not given) was tested, and the T/C (dose: 100.0 mg/kg/injection, schedule: Q04DX002 (ip), vehicle: saline) was 99 % of control, the T/C (dose: 200.0 mg/kg/injection, schedule: Q04DX002 (ip), vehicle: saline) was 98 % of control and the T/C (dose: 400.0 mg/kg/injection, schedule: Q04DX002 (ip), vehicle: saline) was 99 % of control.

`CCNC1CCC(Nc2ccnc3cc(Cl)ccc23)CC1` (stereo not given) was tested, and the T/C [11] was 95 % of control and the T/C [12] was 87 % of control.

In the case of `CN(C)C(=S)/N=c1\ss/c(=N/C(=S)N(C)C)n1-c1ccc([N+](=O)[O-])cc1`, the T/C (dose: 6.25 mg/kg/injection, schedule: Q01DX009 (ip), vehicle: saline with Tween-80) is reported as 102 % of control, the T/C (dose: 12.5 mg/kg/injection, schedule: Q01DX009 (ip), vehicle: saline with Tween-80) is reported as 103 % of control and the T/C (dose: 25.0 mg/kg/injection, schedule: Q01DX009 (ip), vehicle: saline with Tween-80) is reported as 103 % of control.

`COCC(=O)OC` was tested, and the T/C [6] was 97 % of control, the T/C [3] was 100 % of control and the T/C [4] was 98 % of control. For the same compound, the T/C [5] was 92 % of control.

With `COc1ccc(CNC(=O)C#CCOC2CCCCO2)cc1` (stereo not given) the T/C (dose: 12.5 mg/kg/injection, schedule: Q01DX005 (ip), vehicle: saline with Tween-80) was 91 % of control, the T/C (dose: 25.0 mg/kg/injection, schedule: Q01DX005 (ip), vehicle: saline with Tween-80) was 90 % of control and the T/C (dose: 50.0 mg/kg/injection, schedule: Q01DX005 (ip), vehicle: saline with Tween-80) was 86 % of control. For the same compound, the T/C (dose: 200.0 mg/kg/injection, schedule: Q01DX005 (ip), vehicle: saline with Tween-80) was 86 % of control.

`C=CCc1cc(OC)c(OCC(=O)O)c(OC)c1` was tested, and the T/C (dose: 100.0 mg/kg/injection, schedule: Q04DX003 (ip), vehicle: Klucel (hydroxypropylcellulose) (HPC)) was 98 % of control and the T/C (dose: 200.0 mg/kg/injection, schedule: Q04DX003 (ip), vehicle: Klucel (hydroxypropylcellulose) (HPC)) was 109 % of control.

`O=C(CNC(=O)Nc1ccc(Cl)c(Cl)c1)N/N=C/c1cccc(F)c1` was tested, and the T/C (dose: 15.0 mg/kg/injection, schedule: Q01DX005 (ip), vehicle: saline with Tween-80) was 89 % of control, the T/C (dose: 30.0 mg/kg/injection, schedule: Q01DX005 (ip), vehicle: saline with Tween-80) was 91 % of control and the T/C (dose: 60.0 mg/kg/injection, schedule: Q01DX005 (ip), vehicle: saline with Tween-80) was 89 % of control.

For `O=C(O)CCCC/C=C/CCCCCCC1C=CCC1` (stereo not given), the T/C [1] was 93 % of control, the T/C [2] was 98 % of control and the T/C (dose: 400.0 mg/kg/injection, schedule: Q04DX003 (ip), vehicle: saline) was 91 % of control.

In the case of `COc1c(C)cc(Cc2ccc3c(c2)OCO3)cc1C`, the T/C [11] is reported as 109 % of control, the T/C [12] is reported as 109 % of control and the T/C (dose: 200.0 mg/kg/injection, schedule: Q01DX005 (ip), vehicle: Klucel (hydroxypropylcellulose) (HPC)) is reported as 113 % of control.

With `CC(=O)NC(=O)CCCCCCC(=O)NC(C)=O` the T/C [11] was 88 % of control.

`C/C(=N\NC(=S)N1CCC(C)CC1)c1nccnc1C` was tested, and the T/C (dose: 6.0 mg/kg/injection, schedule: Q01DX005 (ip), vehicle: Klucel (hydroxypropylcellulose) (HPC)) was 108 % of control, the T/C (dose: 12.0 mg/kg/injection, schedule: Q01DX005 (ip), vehicle: Klucel (hydroxypropylcellulose) (HPC)) was 106 % of control and the T/C (dose: 25.0 mg/kg/injection, schedule: Q01DX005 (ip), vehicle: Klucel (hydroxypropylcellulose) (HPC)) was 106 % of control.

For `Cn1c2ccccc2c2cnn3cnnc3c21`, the T/C (dose: 50.0 mg/kg/injection, schedule: Q01DX001 (ip), vehicle: Klucel (hydroxypropylcellulose) (HPC)) was 91 % of control, the T/C (dose: 100.0 mg/kg/injection, schedule: Q01DX001 (ip), vehicle: Klucel (hydroxypropylcellulose) (HPC)) was 88 % of control and the T/C (dose: 200.0 mg/kg/injection, schedule: Q01DX001 (ip), vehicle: Klucel (hydroxypropylcellulose) (HPC)) was 96 % of control.

With `CC1=C(C(=O)Nc2ccccc2)C(c2ccc(C)cc2)C(C(=O)Nc2ccccc2)=C(C)N1` the T/C [8] was 107 % of control, the T/C [9] was 106 % of control and the T/C [10] was 101 % of control.

With `CC(C)C1=CC2=C[C@H](O)[C@H]3C(C)(C)CCC[C@]3(C)C2=C(O)C1=O` the T/C (dose: 1.25 mg/kg/injection, schedule: Q01DX009 (ip), vehicle: saline with Tween-80) was 109 % of control and 91 % of control, the T/C (dose: 1.25 mg/kg/injection, schedule: Q01DX009 (ip), vehicle: suspension in saline) was 103 % of control and the T/C (dose: 1.75 mg/kg/injection, schedule: Q01DX009 (ip), vehicle: saline with Tween-80) was 108 % of control. The T/C (dose: 2.5 mg/kg/injection, schedule: Q01DX009 (ip), vehicle: saline with Tween-80) was 100 % of control and 111 % of control and 123 % of control, the T/C (dose: 2.5 mg/kg/injection, schedule: Q01DX009 (ip), vehicle: suspension in saline) was 109 % of control and the T/C (dose: 5.0 mg/kg/injection, schedule: Q01DX009 (ip), vehicle: saline with Tween-80) was 104 % of control and 108 % of control and 111 % of control. The T/C (dose: 5.0 mg/kg/injection, schedule: Q01DX009 (ip), vehicle: suspension in saline) was 100 % of control, the T/C (dose: 10.0 mg/kg/injection, schedule: Q01DX009 (ip), vehicle: saline with Tween-80) was 107 % of control and 109 % of control and 113 % of control and the T/C (dose: 10.0 mg/kg/injection, schedule: Q01DX009 (ip), vehicle: suspension in saline) was 113 % of control. For the same compound, the T/C (dose: 20.0 mg/kg/injection, schedule: Q01DX009 (ip), vehicle: suspension in saline) was 109 % of control.

Reference: PubChem BioAssay AID330 (DTP/NCI, 2004)
